{"source": "patent US20210236668A1", "about": "“COMPOSITIONS FOR RADIOTHERAPY AND USES THEREOF” (The Trustees of Columbia University in the City of New York, priority 2018, published 2021)", "key": {"NCI-28H cells": {"tested_on": "NCI-28H cells", "details": "for % survival from untreated cells: cells + drug / Average reading: cells + drug / Average absorbance reading: cells + drug / % survival cells after exposure to drug for 72 hrs (cells + drug only) / Average absorbance readings: cells + drug: NCI-28H"}, "NCI-2052H cells": {"tested_on": "NCI-2052H cells", "assay": "Cytotoxicity assay (MTS, CellTiter 96 AQueous One, 490 nm), 72 hrs", "format": "cell-based", "details": "for Average reading: cells + drug: absorbance 490 nm", "description": "Read absorbance (MTS assay) and calculate cells survival rate. Compare survival rate\n1,500,000 cells/440,000=3.4 ml of cells/media mix need to take from flask and transfer to 26.6 ml media. In 50 ml Falcon tube, combine 26.6 ml fresh medium and 3.4 ml cells. Gently mix.\n1. Centrifuge tubes at 3200 rpm for 3 min. Take out supernatant.\n6. Check the plates and start incubation for 72 hrs at 37° C./5% CO2.\n5. Incubate plate 1 hr at 37° C., 5% CO2.\nCompare survival rate of cells.\n1. […] Protocol how to do that see in previous cytotoxicity experiment.\n1. Incubate plate for 72 hrs at 37° C., 5% CO2.\n6. Incubate plate 1 hr at 37° C., 5% CO2."}, "[1]": {"assay": "Talc bound to hot/cold Avidin, 48 hrs wash in PBS containing 10% FBS, absorbance 450 nm", "format": "physicochemical", "details": "48 hrs in PBS containing 10% FBS", "description": "Purpose: To check how strong the conjugate of hot/cold Avidin to Talc is. […] Absorbance will be checked twice—once before washing with PBS containing 10% FBS and after 48 hours, washing will be done.\n14. […] Two identical microplates need to be set up, labeling them as: plate #1 and plate #2. Design of the plate:\n3. Wash both plates 3× with 300 μL PBS.\n5. […] Mix constantly, cover plate with Aluminum foil.\n6. Add 100 μL of TMB to samples in plate #1.\n9. Read absorbance at 450 nm using the plate reader.\n3. Collect 100 μL supernatant from samples except native controls and load on same plate.\n4. Wash plate except supernatant samples 3× with 300 μL PBS.\n6. Add 100 μL of TMB to all samples in plate #2."}}, "note": "Several values for one entry are separate records, joined by “and”; a condition that tells them apart may be missing. Equal entries are not always repeated. Structures can show the parent of a compound that is named as a salt. Where two headings read alike, the source gives them in different places."}
{"molecule": "N.N.O=C([O-])C1(C(=O)[O-])CCC1.[Pt+2]", "note": "[Carboplatin]", "values": [{"measurement": "% survival from untreated cells: cells + drug", "setting": "NCI-28H cells; carboplatin 0.006 μM", "value": "90.84% and 94.28%"}, {"measurement": "Average reading: cells + drug", "setting": "NCI-28H cells; carboplatin 0.006 μM, absorbance 490 nm", "value": 1.504}, {"measurement": "% survival from untreated cells: cells + drug", "setting": "NCI-28H cells; carboplatin 0.8 μM", "value": "85.98% and 87.53%"}, {"measurement": "Average reading: cells + drug", "setting": "NCI-28H cells; carboplatin 0.8 μM, absorbance 490 nm", "value": 1.4238}, {"measurement": "% survival from untreated cells: cells + drug", "setting": "NCI-28H cells; carboplatin 4 μM", "value": "96.93% and 93.62%"}, {"measurement": "Average reading: cells + drug", "setting": "NCI-28H cells; carboplatin 4 μM, absorbance 490 nm", "value": 1.605}, {"measurement": "% survival from untreated cells: cells + drug", "setting": "NCI-28H cells; carboplatin 20 μM", "value": "104.81% and 99.20%"}, {"measurement": "Average reading: cells + drug", "setting": "NCI-28H cells; carboplatin 20 μM, absorbance 490 nm", "value": 1.7355}, {"measurement": "% survival from untreated cells: cells + drug", "setting": "NCI-28H cells; carboplatin 100 μM", "value": "83.82% and 79.53%"}, {"measurement": "Average reading: cells + drug", "setting": "NCI-28H cells; carboplatin 100 μM, absorbance 490 nm", "value": 1.388}, {"measurement": "% survival from untreated cells: cells + drug", "setting": "NCI-28H cells; carboplatin 500 μM", "value": "37.38% and 35.14%"}, {"measurement": "Average reading: cells + drug", "setting": "NCI-28H cells; carboplatin 500 μM, absorbance 490 nm", "value": 0.6189}]}
{"molecule": "Nc1ccn([C@@H]2O[C@H](CO)[C@@H](O)C2(F)F)c(=O)n1", "note": "[gemcitabine, Gemcitabine]", "values": [{"measurement": "cytotoxicity to NCI-28H cells, comparison", "setting": "NCI-28H cells", "value": "clear cytotoxic effect"}, {"measurement": "% survival from untreated cells: cells + drug", "setting": "NCI-28H cells; gemcitabine 0.0026 μM", "value": 114.61, "unit": "%"}, {"measurement": "Average absorbance reading: cells + drug", "setting": "NCI-28H cells; gemcitabine 0.0026 μM", "value": 2.034}, {"measurement": "% survival from untreated cells: cells + drug", "setting": "NCI-28H cells; gemcitabine 0.013 μM", "value": 107.85, "unit": "%"}, {"measurement": "Average absorbance reading: cells + drug", "setting": "NCI-28H cells; gemcitabine 0.013 μM", "value": 1.914}, {"measurement": "% survival from untreated cells: cells + drug", "setting": "NCI-28H cells; gemcitabine 0.064 μM", "value": 80.60, "unit": "%"}, {"measurement": "Average absorbance reading: cells + drug", "setting": "NCI-28H cells; gemcitabine 0.064 μM", "value": 1.43}, {"measurement": "% survival from untreated cells: cells + drug", "setting": "NCI-28H cells; gemcitabine 8 μM", "value": 56.58, "unit": "%"}, {"measurement": "Average absorbance reading: cells + drug", "setting": "NCI-28H cells; gemcitabine 8 μM", "value": 1.004}, {"measurement": "% survival from untreated cells: cells + drug", "setting": "NCI-28H cells; gemcitabine 40 μM", "value": 60.09, "unit": "%"}, {"measurement": "Average absorbance reading: cells + drug", "setting": "NCI-28H cells; gemcitabine 40 μM", "value": 1.0663}, {"measurement": "% survival from untreated cells: cells + drug", "setting": "NCI-28H cells; gemcitabine 200 μM", "value": 52.70, "unit": "%"}, {"measurement": "Average absorbance reading: cells + drug", "setting": "NCI-28H cells; gemcitabine 200 μM", "value": 0.9352}]}
{"molecule": "CC(=O)O[C@H]1C(=O)[C@@]2(C)[C@H]([C@H](OC(=O)c3ccccc3)[C@]3(O)C[C@H](OC(=O)[C@H](O)[C@@H](NC(=O)c4ccccc4)c4ccccc4)C(C)=C1C3(C)C)[C@]1(OC(C)=O)CO[C@@H]1C[C@@H]2O", "note": "[Paclitaxel]", "values": [{"measurement": "Average readings: cells + drug", "setting": "NCI-28H cells; Paclitaxel 80 nM, absorbance 490 nm", "value": 1.10}, {"measurement": "Average reading: cells + drug", "setting": "NCI-2052H cells; paclitaxel 0.256 nM", "value": 1.4273}, {"measurement": "Average reading: cells + drug", "setting": "NCI-2052H cells; paclitaxel 6.4 nM", "value": 1.54}, {"measurement": "Average reading: cells + drug", "setting": "NCI-2052H cells; paclitaxel 32 nM", "value": 0.5818}, {"measurement": "Average reading: cells + drug", "setting": "NCI-2052H cells; paclitaxel 160 nM", "value": 0.4361}, {"measurement": "Average reading: cells + drug", "setting": "NCI-2052H cells; paclitaxel 800 nM", "value": 0.4326}, {"measurement": "Average reading: cells + drug", "setting": "NCI-2052H cells; paclitaxel 4000 nM", "value": 0.553}, {"measurement": "Average reading: cells + drug", "setting": "NCI-2052H cells; paclitaxel 20,000 nM", "value": 0.1647}]}
{"molecule": "Avidin: Avidin from egg white (Sigma A9275), 66 kDa biotin-binding protein; unlabeled = cold Avidin", "values": [{"measurement": "binding of Avidin to talc at 48 hours", "setting": "[1]", "value": "unchanged"}]}
{"molecule": "N.N.[Cl][Pt][Cl]", "note": "[Cisplatin]", "values": [{"measurement": "cytotoxicity to NCI-28H cells, comparison", "setting": "NCI-28H cells", "value": "no noticeable difference in toxicity"}, {"measurement": "Average reading: cells + cisplatin", "setting": "NCI-28H cells; 72 hrs, Cisplatin 20 μM", "value": 0.48}, {"measurement": "Average reading: cells + cisplatin", "setting": "NCI-28H cells; 72 hrs, Cisplatin 100 μM", "value": 0.59}]}
{"molecule": "COc1cccc2c1C(=O)c1c(O)c3c(c(O)c1C2=O)C[C@@](O)(C(=O)CO)C[C@@H]3O[C@H]1C[C@H](N)[C@H](O)[C@H](C)O1", "note": "[DOX, Doxorubicin Hydrochloride]", "values": [{"measurement": "AVERAGE: cells + DOX (absorbance)", "setting": "NCI-28H cells; 72 hrs, DOX 0.000064 μM", "value": 1.18}, {"measurement": "AVERAGE: cells + DOX (absorbance)", "setting": "NCI-28H cells; 72 hrs, DOX 0.2 μM", "value": 0.89}, {"measurement": "AVERAGE: cells + DOX (absorbance)", "setting": "NCI-28H cells; 72 hrs, DOX 1 μM", "value": 0.67}, {"measurement": "AVERAGE: cells + DOX (absorbance)", "setting": "NCI-28H cells; 72 hrs, DOX 5 μM", "value": 0.63}, {"measurement": "% survival from untreated by DOX cells", "setting": "NCI-28H cells; 72 hrs, Dox 200 nM", "value": 65.0, "unit": "%"}, {"measurement": "% survival NCI-28H cells after different treatment (compare to untreated cells)", "setting": "NCI-28H cells; cells + 125 nM DOX", "value": 70, "unit": "%"}, {"measurement": "% survival from untreated cells", "setting": "NCI-2052H cells; doxorubicin 400 nM", "value": 57.76, "unit": "%"}, {"measurement": "% survival from untreated cells", "setting": "NCI-2052H cells; doxorubicin 2000 nM", "value": 25.59, "unit": "%"}, {"measurement": "% survival from untreated cells", "setting": "NCI-2052H cells; doxorubicin 10,000 nM", "value": 18.91, "unit": "%"}]}
{"molecule": "CO[C@@]12[C@H](COC(N)=O)C3=C(C(=O)C(C)=C(N)C3=O)N1C[C@@H]1N[C@@H]12", "note": "[mitomycin, Mitomycin]", "values": [{"measurement": "% survival cells after exposure to drug for 72 hrs (cells + drug only)", "setting": "NCI-28H cells; mitomycin 0.0026 μM, 72 hrs", "value": 106.12, "unit": "%"}, {"measurement": "Average absorbance readings: cells + drug", "setting": "NCI-28H cells; mitomycin 0.0026 μM", "value": 2.032}, {"measurement": "% survival cells after exposure to drug for 72 hrs (cells + drug only)", "setting": "NCI-28H cells; mitomycin 0.013 μM, 72 hrs", "value": 102.65, "unit": "%"}, {"measurement": "Average absorbance readings: cells + drug", "setting": "NCI-28H cells; mitomycin 0.013 μM", "value": 1.965}, {"measurement": "% survival cells after exposure to drug for 72 hrs (cells + drug only)", "setting": "NCI-28H cells; mitomycin 0.064 μM, 72 hrs", "value": 98.03, "unit": "%"}, {"measurement": "Average absorbance readings: cells + drug", "setting": "NCI-28H cells; mitomycin 0.064 μM", "value": 1.8766}, {"measurement": "% survival cells after exposure to drug for 72 hrs (cells + drug only)", "setting": "NCI-28H cells; mitomycin 8 μM, 72 hrs", "value": 18.03, "unit": "%"}, {"measurement": "Average absorbance readings: cells + drug", "setting": "NCI-28H cells; mitomycin 8 μM", "value": 0.3451}, {"measurement": "% survival cells after exposure to drug for 72 hrs (cells + drug only)", "setting": "NCI-28H cells; mitomycin 40 μM, 72 hrs", "value": 27.16, "unit": "%"}, {"measurement": "Average absorbance readings: cells + drug", "setting": "NCI-28H cells; mitomycin 40 μM", "value": 0.52}, {"measurement": "% survival cells after exposure to drug for 72 hrs (cells + drug only)", "setting": "NCI-28H cells; mitomycin 200 μM, 72 hrs", "value": 12.87, "unit": "%"}, {"measurement": "Average absorbance readings: cells + drug", "setting": "NCI-28H cells; mitomycin 200 μM", "value": 0.2464}, {"measurement": "Average reading: cells + drug", "setting": "NCI-2052H cells; mitomycin 0.013 μM", "value": 1.284}, {"measurement": "Average reading: cells + drug", "setting": "NCI-2052H cells; mitomycin 0.064 μM", "value": 1.199}, {"measurement": "Average reading: cells + drug", "setting": "NCI-2052H cells; mitomycin 8 μM", "value": 0.4142}, {"measurement": "Average reading: cells + drug", "setting": "NCI-2052H cells; mitomycin 40 μM", "value": 0.2305}, {"measurement": "Average reading: cells + drug", "setting": "NCI-2052H cells; mitomycin 200 μM", "value": 0.2098}, {"measurement": "Average reading: cells + drug", "setting": "NCI-2052H cells; mitomycin .0026 μM", "value": 1.424}]}
